Source: ChEMBL document CHEMBL1201862, “PubChem BioAssay data set” (2004)
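How tested: cells in 96-well plates exposed to compound for 48 hours at five concentrations. GI50 is the concentration that inhibits growth by half.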 Active and inactive are the calls of the source. Cut-off read from the data, not from the text of the source: active = GI50 up to about 1.1 µM and inactive = higher.

Key:
Test in all cases: NCI-60 cell line screen, 48 h
786-0 = test system: 786-0
A498 = test system: A498
A549 = test system: A549
ACHN = test system: ACHN
BT-549 = test system: BT-549
CAKI-1 = test system: CAKI-1
CCRF-CEM = test system: CCRF-CEM
COLO 205 = test system: COLO 205
DU-145 = test system: DU-145
EKVX = test system: EKVX
HCC 2998 = test system: HCC 2998
HCT-116 = test system: HCT-116
HCT-15 = test system: HCT-15
HL-60 = test system: HL-60
HOP-62 = test system: HOP-62
HOP-92 = test system: HOP-92
HT-29 = test system: HT-29
Hs-578T = test system: Hs-578T
IGROV-1 = test system: IGROV-1
K562 = test system: K562
KM12 = test system: KM12
LOX IMVI = test system: LOX IMVI
M14 = test system: M14
MCF7 = test system: MCF7
MDA-MB-231 = test system: MDA-MB-231
MDA-MB-435 = test system: MDA-MB-435
MDA-N = test system: MDA-N
MOLT-4 = test system: MOLT-4
Malme-3M = test system: Malme-3M
NCI-H23 = test system: NCI-H23
NCI-H522 = test system: NCI-H522
NCI/ADR-RES = test system: NCI/ADR-RES
OVCAR-3 = test system: OVCAR-3
OVCAR-5 = test system: OVCAR-5
OVCAR-8 = test system: OVCAR-8
PC-3 = test system: PC-3
RPMI-8226 = test system: RPMI-8226
RXF 393 = test system: RXF 393
SF-268 = test system: SF-268
SF-295 = test system: SF-295
SF-539 = test system: SF-539
SK-MEL-28 = test system: SK-MEL-28
SK-MEL-2 = test system: SK-MEL-2
SK-MEL-5 = test system: SK-MEL-5
SN12C = test system: SN12C
SNB-19 = test system: SNB-19
SNB-75 = test system: SNB-75
SR = test system: SR
SW-620 = test system: SW-620
T47D = test system: T47D
TK-10 = test system: TK-10
U-251 = test system: U-251
UACC-257 = test system: UACC-257
UACC-62 = test system: UACC-62
UO-31 = test system: UO-31
NCI-H226 = test system: NCI-H226
NCI-H460 = test system: NCI-H460
OVCAR-4 = test system: OVCAR-4
SK-OV-3 = test system: SK-OV-3

Measured: GI50

S=C(S)N1CCN(c2cccc(Cl)c2)CC1
inactive: 786-0 73.1 µM | A498 > 100 µM | A549 > 100 µM | ACHN > 100 µM | BT-549 86.5 µM | CAKI-1 42.1 µM | CCRF-CEM 34.9 µM | COLO 205 76.4 µM | DU-145 > 100 µM | EKVX > 100 µM | HCC 2998 52.6 µM | HCT-116 41.4 µM | HL-60 34.9 µM | HOP-62 82.8 µM | HOP-92 80.7 µM | HT-29 > 100 µM | Hs-578T > 100 µM | IGROV-1 > 100 µM | K562 48.9 µM | KM12 75.3 µM | LOX IMVI 36.7 µM | M14 > 100 µM | MCF7 > 100 µM | MDA-MB-231 68.9 µM | MDA-MB-435 > 100 µM | MDA-N > 100 µM | MOLT-4 78.3 µM | Malme-3M > 100 µM | NCI-H23 > 100 µM | NCI-H522 > 100 µM | NCI/ADR-RES > 100 µM | OVCAR-3 > 100 µM | OVCAR-5 > 100 µM | OVCAR-8 > 100 µM | PC-3 66.8 µM | RPMI-8226 47.4 µM | RXF 393 > 100 µM | SF-268 76.4 µM | SF-295 > 100 µM | SF-539 > 100 µM | SK-MEL-28 39.8 µM | SK-MEL-2 85.5 µM | SK-MEL-5 27.9 µM | SN12C > 100 µM | SNB-19 > 100 µM | SNB-75 69.3 µM | SR 39.4 µM | SW-620 65.3 µM | T47D 34.6 µM | TK-10 > 100 µM | U-251 44.3 µM | UACC-257 85.1 µM | UACC-62 > 100 µM | UO-31 30.8 µM
> 100 µM: HCT-15

Cc1ccc(S(=O)(=O)Nc2nc3ccccc3c(=O)n2C2CCCCC2)cc1
> 100 µM: HCT-15
inactive: 786-0 > 100 µM | A498 > 100 µM | A549 > 100 µM | ACHN > 100 µM | BT-549 28.1 µM | CAKI-1 81.3 µM | CCRF-CEM > 100 µM | COLO 205 > 100 µM | DU-145 > 100 µM | EKVX > 100 µM | HCC 2998 > 100 µM | HCT-116 > 100 µM | HL-60 57.9 µM | HOP-62 > 100 µM | HOP-92 67.5 µM | HT-29 > 100 µM | Hs-578T 62.5 µM | IGROV-1 > 100 µM | K562 > 100 µM | KM12 > 100 µM | LOX IMVI > 100 µM | M14 > 100 µM | MCF7 > 100 µM | MDA-MB-231 78.3 µM | MDA-MB-435 > 100 µM | MDA-N > 100 µM | MOLT-4 > 100 µM | NCI-H226 > 100 µM | NCI-H23 > 100 µM | NCI-H460 97.1 µM | NCI-H522 41.7 µM | NCI/ADR-RES > 100 µM | OVCAR-3 76.7 µM | OVCAR-4 51.8 µM | OVCAR-5 > 100 µM | OVCAR-8 > 100 µM | PC-3 > 100 µM | RPMI-8226 > 100 µM | RXF 393 68.2 µM | SF-268 > 100 µM | SF-295 23.1 µM | SF-539 > 100 µM | SK-MEL-28 > 100 µM | SK-MEL-2 > 100 µM | SK-MEL-5 > 100 µM | SK-OV-3 > 100 µM | SN12C > 100 µM | SNB-19 > 100 µM | SNB-75 53.1 µM | SR > 100 µM | SW-620 > 100 µM | T47D > 100 µM | TK-10 > 100 µM | U-251 90.2 µM | UACC-257 > 100 µM | UACC-62 77.4 µM | UO-31 > 100 µM
